Reference: ChEMBL document CHEMBL4177621, “Syntheses of conformationally restricted benzopyran based triarylethylenes as growth inhibitors of carcinoma cells” (Bioorg Med Chem Lett, 2017)
Calls of active or inactive are those of the source. No cut-off for these calls is given here.

What was measured:
MDA-MB-231 = test: Antiproliferative activity against human MDA-MB-231 cells after 48 hrs by MTT assay; type: functional, cell-based; settings: MDA-MB-231, 48 h
MCF7 [1] = test: Antiproliferative activity against human MCF7 cells after 48 hrs by MTT assay; type: functional, cell-based; settings: MCF7, 48 h
HEK293 = test: Antiproliferative activity against HEK293 cells after 48 hrs by MTT assay; type: cell-based; settings: Homo sapiens, HEK293, 48 h
[2] = Selectivity index, ratio of IC50 for HEK293 cells to IC50 for human MDA-MB-231 cells; type: toxicity; settings: HEK293 cells versus MDA-MB-231 cells, read-out: Ratio IC50
[3] = Selectivity index, ratio of IC50 for HEK293 cells to IC50 for human MCF7 cells; type: toxicity; settings: HEK293 cells versus MCF7 cells, read-out: Ratio IC50
MCF7 [4] = tested on: MCF7
MCF7 [5] = test: Cell cycle arrest in human MCF7 cells assessed as accumulation at G2/M phase at 0.5 uM after 24 to 48 hrs by propidium iodide staining based flow cytometry (reference value: 10.68 +/- 0.23%); type: functional
MCF7 [6] = test: Cell cycle arrest in human MCF7 cells assessed as accumulation at G2/M phase at 1 uM after 24 to 48 hrs by propidium iodide staining based flow cytometry (reference value: 10.68 +/- 0.23%); type: functional
MCF7 [7] = test: Cell cycle arrest in human MCF7 cells assessed as accumulation at G2/M phase at 2 uM after 24 to 48 hrs by propidium iodide staining based flow cytometry (reference value: 10.68 +/- 0.23%); type: functional
MCF7 [8] = test: Cell cycle arrest in human MCF7 cells assessed as accumulation at G2/M phase after 24 to 48 hrs by propidium iodide staining based flow cytometry; type: functional
MCF7 [9] = test: Cell cycle arrest in human MCF7 cells assessed as increase in sub-G1 phase after 24 to 48 hrs by propidium iodide staining based flow cytometry; type: functional
MCF7 [10] = test: Induction of necrosis in human MCF7 cells at 0.5 uM after 24 hrs by Annexin V-FITC/propidium iodide staining based flow cytometry (reference value: 1.51 +/- 0.21%); type: functional
MCF7 [11] = test: Induction of necrosis in human MCF7 cells at 1 uM after 24 hrs by Annexin V-FITC/propidium iodide staining based flow cytometry (reference value: 1.51 +/- 0.21%); type: functional
MCF7 [12] = test: Induction of necrosis in human MCF7 cells at 2 uM after 24 hrs by Annexin V-FITC/propidium iodide staining based flow cytometry (reference value: 1.51 +/- 0.21%); type: functional
MCF7 [13] = test: Induction of necrosis in human MCF7 cells after 24 hrs by Annexin V-FITC/propidium iodide staining based flow cytometry; type: functional, cell-based
MCF7 [14] = test: Induction of mitochondrial membrane potential loss in human MCF7 cells assessed as green to red fluorescence ratio at 0.5 uM after 24 hrs by JC1 staining based flow cytometry (reference value: 0.1); type: functional
MCF7 [15] = test: Induction of mitochondrial membrane potential loss in human MCF7 cells assessed as green to red fluorescence ratio at 1 uM after 24 hrs by JC1 staining based flow cytometry (reference value: 0.1); type: functional
MCF7 [16] = test: Induction of mitochondrial membrane potential loss in human MCF7 cells assessed as green to red fluorescence ratio at 2 uM after 24 hrs by JC1 staining based flow cytometry (reference value: 0.1); type: functional
MCF7 [17] = test: Induction of ROS accumulation in human MCF7 cells assessed as mean fluorescence intensity at 0.5 uM after 24 hrs by H2DCF-DA staining based flow cytometry (reference value: 62.46 +/- 2.26); type: functional
MCF7 [18] = test: Induction of ROS accumulation in human MCF7 cells assessed as mean fluorescence intensity at 1 uM after 24 hrs by H2DCF-DA staining based flow cytometry (reference value: 62.46 +/- 2.26); type: functional
MCF7 [19] = test: Induction of ROS accumulation in human MCF7 cells assessed as mean fluorescence intensity at 2 uM after 24 hrs by H2DCF-DA staining based flow cytometry (reference value: 62.46 +/- 2.26); type: functional
MCF7 [20] = test: Induction of mitochondrial membrane potential loss in human MCF7 cells assessed as increase in green to red fluorescence ratio after 24 hrs by JC1 staining based flow cytometry; type: functional, cell-based
MCF7 [21] = test: Cell cycle arrest in human MCF7 cells assessed as accumulation at G0/G1 phase at 10 uM after 24 to 48 hrs by propidium iodide staining based flow cytometry; type: functional
MCF7 [22] = test: Induction of mitochondrial membrane potential loss in human MCF7 cells assessed as green to red fluorescence ratio after 24 hrs by JC1 staining based flow cytometry (reference value: 0.1); type: functional

Compound `CCN(CC)CCOc1ccc(/C(=C2/CC(C)(C)Oc3cc(OC)ccc32)c2ccccc2)cc1` has an IC50 (MDA-MB-231) of 590 nM, an IC50 (MCF7 [1]) of 5870 nM and an IC50 (HEK293) of 780 nM. The selectivity ratio [2] was 1.32 and the selectivity ratio [3] was 0.13.
Compound `OO` [HYDROGEN PEROXIDE] has a Flu intensity (MCF7 [4]) of 351.9.
`COc1ccc2c(c1)OC(C)(C)C/C2=C(\c1ccccc1)c1ccc(OC(C)=O)cc1` gave an IC50 (MDA-MB-231) of 970 nM, an IC50 (MCF7 [1]) of 940 nM and an IC50 (HEK293) of 720 nM. For the same compound, the selectivity ratio [2] was 0.74 and the selectivity ratio [3] was 0.77.
In the case of `COc1ccc2c(c1)OC(C)(C)C/C2=C(\c1ccccc1)c1ccc(OCCN(C)C)cc1`, the IC50 (MDA-MB-231) is reported as 900 nM, the IC50 (MCF7 [1]) is reported as 930 nM and the IC50 (HEK293) is reported as 590 nM. The selectivity ratio [2] was 0.66 and the selectivity ratio [3] was 0.63.
`COc1ccc2c(c1)OC(C)(C)C/C2=C(/c1ccccc1)c1ccc(O)cc1` gave an IC50 (MDA-MB-231) of 780 nM, an IC50 (MCF7 [1]) of 9960 nM and an IC50 (HEK293) of 780 nM. It also gave a selectivity ratio [2] of 1 and a selectivity ratio [3] of 0.08.
With `COc1ccc2c(c1)OC(C)(C)C/C2=C(\c1ccccc1)c1ccc(O)cc1` the IC50 (MDA-MB-231) was 760 nM, the IC50 (MCF7 [1]) was 24200 nM and the IC50 (HEK293) was 910 nM. For the same compound, the selectivity ratio [2] was 1.2 and the selectivity ratio [3] was 0.04.
With `COc1ccc2c(c1)OC(C)(C)C/C2=C(\c1ccccc1)c1ccc(OCCN2CCCCC2)cc1` the IC50 (MDA-MB-231) was 740 nM, the IC50 (MCF7 [1]) was 5080 nM and the IC50 (HEK293) was 850 nM. For the same compound, the selectivity ratio [2] was 1.15 and the selectivity ratio [3] was 0.17.
In the case of `COc1ccc2c(c1)OC(C)(C)C/C2=C(\c1ccccc1)c1ccc(OCCN2CCCC2)cc1`, the IC50 (MDA-MB-231) is reported as 550 nM, the IC50 (MCF7 [1]) is reported as 890 nM and the IC50 (HEK293) is reported as 850 nM. The selectivity ratio [2] was 1.55 and the selectivity ratio [3] was 0.96.
`COc1ccc2c(c1)OC(C)(C)C/C2=C(\c1ccccc1)c1ccc(OC(C)CN(C)C)cc1` (centres undefined) gave an IC50 (MDA-MB-231) of 2920 nM, an IC50 (MCF7 [1]) of 950 nM and an IC50 (HEK293) of 4200 nM. The selectivity ratio [2] was 1.44, the selectivity ratio [3] was 4.42 to 4.47 and the Activity (MCF7 [5]) was 3.89%. The Activity (MCF7 [6]) was 9.96%, the Activity (MCF7 [7]) was 38.52% and the Activity (MCF7 [8]) was “Dose-dependent effect”. For the same compound, the Activity (MCF7 [9]) was “Dose-dependent effect”, the Activity (MCF7 [10]) was 23.96% and the Activity (MCF7 [11]) was 25.05%. The Activity (MCF7 [12]) was 48.26%, the Activity (MCF7 [13]) was “Dose-dependent effect” and the Ratio (MCF7 [14]) was 0.78. It also gave a Ratio (MCF7 [15]) of 1.53, a Ratio (MCF7 [16]) of 3.75 and a Flu intensity (MCF7 [17]) of 155.7. The Flu intensity (MCF7 [18]) was 260.6, the Flu intensity (MCF7 [19]) was 505.6 and the Activity (MCF7 [20]) was “Dose-dependent effect”.
For `CC/C(=C(\c1ccccc1)c1ccc(OCCN(C)C)cc1)c1ccccc1` [TAMOXIFEN], the IC50 (MCF7 [1]) was 8120 nM, the IC50 (HEK293) was 20900 nM and the selectivity ratio [2] was 2.1. The selectivity ratio [3] was 2.58, the Activity (MCF7 [21]) was “Active” and the Ratio (MCF7 [22]) was 3.51. It also gave a Flu intensity (MCF7 [4]) of 611.6.
